Assay results: patent US20240277737A1, “METHOD FOR GENERATING DRY POWDER SUITABLE FOR INHALATION ADMINISTRATION OF ANTIMICROBIAL PHOSPHOLIPID COMPOSITIONS” (Celestial Therapeutics, Inc., priority 2021, published 2024)
In brackets after ≈: the same amount, converted by molar mass.

Columns and labels:
[1] = solubility screening for API spray drying (organic solvents); format: physicochemical
Method: The solubility of the surfactant was investigated to identify a suitable solvent system in which the surfactants can be solubilized to process the material by spray drying.
The class III solvents were preferred to the class II solvents because the […] and of lower risk to human health. The solubility of the POPG using class III solvent was lower than 0.5 mg/mL. For this reason, Class II solvents were investigated. The highest solubility was obtained with a mixture DCM/Methanol 5:1 v/v and it will be used as a vehicle for the spray drying process.

[2] = tested on: Respiratory Syncytial Virus (RSV); details: bronchial epithelial cells; cited from earlier work
[3] = particle size distribution by Sympatec laser particle sizer (RODOS/ASPIROS, 3 bar); format: physicochemical; details: raw material, R5 lens
Method: The Particle Size Distribution analysis was performed at 3 bar dispersion pressure using a Sympatec laser Particle Sizer equipped with RODOS/ASPIROS dispersion unit and an R5 lens.
The particle size analysis of the spray dried powders was performed at 3 bar dispersion pressure using a Sympatec laser Particle Sizer equipped with RODOS/ASPIROS dispersion unit and an R3 lens (n=2) and is summarised in Table 13 and in FIG. 19-FIG. 21. The PSD of spray dried powders decreased with increasing atomisation pressure and reducing outlet temperature during the spray drying manufacture.
The PSD analysis performed on 174 #003A-01 & 174 #003B-01 following storage at −20° C. was repeat-ed.
The spray dried product 174 #005A-01 was vacuum dried for 24 hours at 25° C. with a maximum pressure ˜0.1 mbar. After the 24 hours, the PSD of this product was evaluated. Post vacuum drying, increased amounts of aggregated material were observed and as a result the Dv90 increased.
Based on the PSD results after the storage, an aliquot of the formulation 174 #005A-01, that was stored at −20° C. for 4 weeks, was taken out from the freezer, transferred in sealed container and equilibrated for 5 hours at ambient temperature (20 C-25 C, <30% RH) in a sealed vial.
The 174 #010A-01 post vacuum drying was separated in different aliquot and stored at 2-8° C. and at −20° C. The PSD and DSC of the spray dried powder was evaluated through time. The spray dried powder was removed from the storage condition an equilibrated at low RH for 5 hours (19° C. and 28% RH) before to perform any test. […]
The particle size distribution of the micronized sample was determined by laser particle size analysis using an R1 (0.1-35.0 μm range) & R3 lens (0.5-175.0 μm range) at 3 bar dispersal pressure at T-0 and after T=7 days after storage of the sample at −20° C. […] There was a slight discrepancy between the two lenses, with the trace of the material measured using the R1 lens appearing larger and very slightly bimodal which wasn't apparent in the trace measured using an R3 lens. […]

[4] = tested on: Toll-like receptor 4 (TLR4) interacting proteins CD14 and MD-2; details: cited from earlier work

Solubility ([1]; Acetone): <0.5 mg/mL
Solubility ([1]; Chloroform): 16.7 mg/mL (≈ 22300 µM)
Solubility ([1]; Cycloexhane): <0.5 mg/mL
Solubility ([1]; DCM/ Methanol 5:1 v/v): ~70 mg/mL (≈ 93500 µM)
Solubility ([1]; Dichloromethane (DCM)): <0.5 mg/mL
Solubility ([1]; Dimethyl sulfoxide (DMSO)): 0.5 mg/mL (≈ 668 µM)
Solubility ([1]; Dimethylformamide (DMF)): <0.5 mg/mL
Solubility ([1]; Ethanol (96%)): 0.5 mg/mL (≈ 668 µM)
Solubility ([1]; Ethyl Acetate): <0.5 mg/mL
Solubility ([1]; Heptane): <0.5 mg/mL
Solubility ([1]; Isopropanol (IPA)): <0.5 mg/mL
Solubility ([1]; Methanol): 1.35 mg/mL (≈ 1800 µM)
Solubility ([1]; class III solvent): lower than 0.5 mg/mL
VMD [3]: 59.05 ± 13.17 μm
X10 [3]: 1.80 ± 0.07 μm
X50 [3]: 12.65 ± 4.65 μm
Compound: CCCCCCCC/C=C\CCCCCCCC(=O)O[C@H](COC(=O)CCCCCCCCCCCCCCC)COP(=O)(O)OCC(O)CO (mixture of isomers) [POPG, 1-Palmitoy-2-loleoyl-sn-glycerol-3-phospho-(1′-rac-glycerol)]
cytopathic effects induced by RSV [2]: significantly inhibited
interleukin-6 production [2]: significantly inhibited
interleukin-8 production [2]: significantly inhibited
inflammatory responses induced by lipopolysaccharide [4]: markedly attenuate
